From ChEMBL document CHEMBL5579871, “Novel Papain-Like Protease Inhibitors for Treating Viral Infections, in particular, Coronavirus Infections” (ACS Med Chem Lett, 2024)

These compounds were tested against Replicase polyprotein 1ab (Severe acute respiratory syndrome coronavirus 2, UniProt P0DTD1) (assay: Inhibition of SARS-CoV-2 papain-like protease using Z-RLRGG-AMC as fluorogenic substrate preincubated for 30 mins followed by substrate addition and measured after 60 mins by plate reader assay).

Row | Compound | IC50 [nM]
1 | Cc1ccc(N2CCN(C)CC2)cc1C(=O)N[C@H](C)c1cc(-c2cnn(C)c2)cc(-c2cccs2)c1 | 4
2 | Cc1cc(C(=O)NCc2cscn2)ccc1C(=O)N[C@H](C)c1cc(-c2cnn(C)c2)cc(-c2ccns2)c1 | 3
3 | Cc1ccc(NC(=O)[C@H]2CCCCN2)cc1C(=O)N[C@H](C)c1cc(-c2cnn(C)c2)cc(-c2cccs2)c1 | 4
4 | Cc1ccc(N2CCN(C)CC2)cc1C(=O)N[C@H](C)c1cc(-c2cnn(C)c2)cc(-c2cc(Cl)cnc2N)c1 | 3
5 | Cc1cc(CNCc2cscn2)ccc1C(=O)N[C@H](C)c1cc(-c2cnn(C)c2)cc(-c2ccns2)c1 | 3
6 | Cc1ccc(N2CCNCC2)cc1C(=O)N[C@H](C)c1cc(-c2cnn(C)c2)cc(-c2cc(Cl)cnc2N)c1 | 4
